Results on two substances are retold here after patent US20230257703A1, “NANOSCALE POLYMERIC MICELLAR SCAFFOLDS FOR RAPID AND EFFICIENT ANTIBODY PRODUCTION” (Iowa State University Research Foundation, Inc., priority 2020, published 2023).

Assay [1] relates to murine splenic B cells (CD19+). As to the kind of experiment: Nur77 expression in B cells by flow cytometry (BCR engagement). The format is cell-based, mice. Conditions: micelle-Ag 10 µg/mL each component, LPS 0.5 µg/mL, anti-IgM F(ab′)2 10 µg/mL. The text has this:
B cell proliferation was detected using in vitro labeling of cells with CFSE and analysis by flow cytometry. Distinct generations of proliferating cells can be monitored by dilutions of CFSE stain on the cells as viewed on the flow cytometry plots. For the flow cytometry procedure, the cells were transferred into polystyrene FACS tubes and labelled with Zombie Aqua dye for tracking viable cells post-stimulation using manufacturer’s instructions. […] For intracellular staining of Nur77 antibody, following surface staining, cells were washed with PBS and then fixed with 4% p-formaldehyde. After washing the cells again with PBS, 0.1% Triton X-100 was used for permeabilization, and following that, Nur77 Ab at a 1:50 dilution was used to stain the cells. After the staining, cells were washed in FACS buffer to remove excess dye and samples were fixed prior to analysis. The flow cytometry data was collected on FACSCanto II (BD Bioscience, NJ) and analyzed using FlowJo (FlowJo LLC, Ashland, CA).
On the technique in general: A flow cytometer gives signals particle by particle.

Assay [2] deals with splenic B cells of Ighel Tg mice (BCRs specific to HEL). As to the kind of experiment: CFSE B cell proliferation and viability, splenic cells of Ighel Tg mice. The class given is cell-based. Conditions: 10 µg/mL, 4 days.

With lipopolysaccharide [LPS], in assay [1], the Nur77 induction entry is listed as “did not trigger Nur77 induction”.

Regarding hen egg white lysozyme [HEL], the “B cell proliferation (CFSE^lo peaks)” value in assay [2] is “small peak with some proliferation”.
